Consider 17 compounds from ChEMBL document CHEMBL3286192, “Late-Stage C-H Coupling Enables Rapid Identification of HDAC Inhibitors: Synthesis and Evaluation of NCH-31 Analogues” (ACS Med Chem Lett, 2014).

Structures are written as SMILES. Activity calls are given as the source filed them. No cut-off for these calls is given here.

For test [1], the target named is T1, Histone deacetylase 1 (Homo sapiens, UniProt Q13547). The conditions noted are these: at 0.1 µM.
In test [2] the target is T2, Protein deacetylase HDAC6 (Homo sapiens) (UniProt Q9UBN7).
T2 sequence (whole entry): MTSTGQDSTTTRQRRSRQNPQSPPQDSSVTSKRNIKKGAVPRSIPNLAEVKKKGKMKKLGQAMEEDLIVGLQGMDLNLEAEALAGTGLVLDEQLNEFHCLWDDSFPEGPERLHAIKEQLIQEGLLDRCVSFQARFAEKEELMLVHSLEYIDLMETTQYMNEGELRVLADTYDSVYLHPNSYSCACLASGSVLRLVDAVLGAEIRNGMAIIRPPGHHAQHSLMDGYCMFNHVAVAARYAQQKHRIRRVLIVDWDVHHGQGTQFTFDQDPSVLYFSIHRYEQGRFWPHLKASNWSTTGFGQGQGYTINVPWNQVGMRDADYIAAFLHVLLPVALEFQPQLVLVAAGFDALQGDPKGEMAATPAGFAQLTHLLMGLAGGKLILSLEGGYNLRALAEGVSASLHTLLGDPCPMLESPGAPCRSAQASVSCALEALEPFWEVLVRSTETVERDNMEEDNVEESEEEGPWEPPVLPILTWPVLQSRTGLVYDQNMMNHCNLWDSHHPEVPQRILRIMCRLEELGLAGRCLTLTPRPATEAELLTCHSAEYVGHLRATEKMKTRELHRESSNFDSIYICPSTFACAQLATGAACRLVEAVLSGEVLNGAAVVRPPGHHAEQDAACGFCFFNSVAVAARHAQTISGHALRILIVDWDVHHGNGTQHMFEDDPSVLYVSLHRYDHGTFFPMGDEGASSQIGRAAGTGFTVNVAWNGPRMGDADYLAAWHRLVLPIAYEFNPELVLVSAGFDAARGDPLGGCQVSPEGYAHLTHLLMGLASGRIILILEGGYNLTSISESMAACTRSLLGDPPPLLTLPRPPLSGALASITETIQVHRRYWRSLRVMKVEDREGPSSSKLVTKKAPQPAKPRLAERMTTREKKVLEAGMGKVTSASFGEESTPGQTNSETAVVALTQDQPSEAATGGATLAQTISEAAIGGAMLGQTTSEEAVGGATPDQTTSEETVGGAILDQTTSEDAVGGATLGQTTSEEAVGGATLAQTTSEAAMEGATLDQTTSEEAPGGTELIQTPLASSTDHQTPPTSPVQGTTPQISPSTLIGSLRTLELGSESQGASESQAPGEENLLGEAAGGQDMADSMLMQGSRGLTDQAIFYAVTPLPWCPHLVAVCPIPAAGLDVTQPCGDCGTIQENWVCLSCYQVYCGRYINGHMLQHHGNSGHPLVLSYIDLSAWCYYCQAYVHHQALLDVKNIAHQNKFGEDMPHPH
Kind of test: Inhibition of human HDAC6 at 1 uM by HDAC-Glo assay.

In test [3] the target is T3, Protein deacetylase HDAC6 (Homo sapiens, UniProt Q9UBN7).
T3 sequence (Q9UBN7 whole entry): T2 sequence (whole entry)
Kind of test: Inhibition of human HDAC6 by HDAC-Glo assay.

For test [4], the target named is T4, Histone deacetylase 9 (Homo sapiens, UniProt Q9UKV0). Briefly: Inhibition of human HDAC9 at 0.1 uM by HDAC-Glo assay.
Test [5] addresses T1, Histone deacetylase 1. Kind of test: Inhibition of human HDAC1 by HDAC-Glo assay.
For test [6], the target named is T4, Histone deacetylase 9. Kind of test: Inhibition of human HDAC9 by HDAC-Glo assay.

T4 sequence (Q9UKV0 whole entry): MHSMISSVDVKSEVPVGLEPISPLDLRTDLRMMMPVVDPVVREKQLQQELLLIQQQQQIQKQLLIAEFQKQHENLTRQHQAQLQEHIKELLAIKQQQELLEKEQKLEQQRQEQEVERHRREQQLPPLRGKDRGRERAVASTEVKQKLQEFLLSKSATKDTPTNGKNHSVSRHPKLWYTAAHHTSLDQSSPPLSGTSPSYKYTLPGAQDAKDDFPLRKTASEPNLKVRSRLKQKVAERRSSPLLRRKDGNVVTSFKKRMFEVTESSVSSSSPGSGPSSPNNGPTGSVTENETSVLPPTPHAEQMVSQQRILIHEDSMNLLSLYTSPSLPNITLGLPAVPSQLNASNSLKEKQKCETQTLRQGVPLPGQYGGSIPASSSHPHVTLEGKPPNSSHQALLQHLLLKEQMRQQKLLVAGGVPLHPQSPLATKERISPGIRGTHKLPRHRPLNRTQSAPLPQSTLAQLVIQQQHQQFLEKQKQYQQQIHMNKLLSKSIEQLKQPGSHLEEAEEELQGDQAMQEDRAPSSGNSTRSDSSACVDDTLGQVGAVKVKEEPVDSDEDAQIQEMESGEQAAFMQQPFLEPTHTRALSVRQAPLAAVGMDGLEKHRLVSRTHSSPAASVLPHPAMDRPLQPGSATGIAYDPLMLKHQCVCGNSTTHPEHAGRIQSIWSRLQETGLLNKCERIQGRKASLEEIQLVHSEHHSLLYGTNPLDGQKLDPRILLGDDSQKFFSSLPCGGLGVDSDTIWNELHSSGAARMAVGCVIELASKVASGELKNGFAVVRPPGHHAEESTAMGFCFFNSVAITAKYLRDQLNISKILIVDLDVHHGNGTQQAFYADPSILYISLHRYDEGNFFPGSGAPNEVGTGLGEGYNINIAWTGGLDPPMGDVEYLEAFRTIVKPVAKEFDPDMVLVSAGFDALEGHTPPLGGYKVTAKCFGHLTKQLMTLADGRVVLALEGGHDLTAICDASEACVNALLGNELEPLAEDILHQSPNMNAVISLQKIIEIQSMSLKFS
T1 sequence (Q13547 whole entry): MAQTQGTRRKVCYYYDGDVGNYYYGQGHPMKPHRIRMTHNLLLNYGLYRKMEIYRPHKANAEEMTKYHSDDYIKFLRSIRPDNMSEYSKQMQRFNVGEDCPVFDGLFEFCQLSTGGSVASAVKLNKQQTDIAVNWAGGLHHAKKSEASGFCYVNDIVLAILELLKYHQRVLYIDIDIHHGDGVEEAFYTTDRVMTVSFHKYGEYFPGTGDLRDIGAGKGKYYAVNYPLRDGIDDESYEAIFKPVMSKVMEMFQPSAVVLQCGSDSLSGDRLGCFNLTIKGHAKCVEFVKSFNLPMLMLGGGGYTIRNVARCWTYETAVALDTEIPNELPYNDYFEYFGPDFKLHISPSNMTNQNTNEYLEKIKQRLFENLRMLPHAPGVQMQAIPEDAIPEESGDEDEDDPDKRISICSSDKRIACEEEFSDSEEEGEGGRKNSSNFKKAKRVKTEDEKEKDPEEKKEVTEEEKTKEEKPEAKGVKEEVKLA

`COc1cc(OC)cc(-c2csc(NC(=O)CCCCCCS)n2)c1`: on Histone deacetylase 1 [1], the inhibition entry was “Active”.
The compound `O=C(CCCCCCS)Nc1nc(-c2cccc(F)c2)cs1` came in with an inhibition in test [2] of 70%. Moreover, the half-inhibitory concentration (IC50) came to 0.15 µM in test [3], 0.049 µM on Histone deacetylase 1 [5] and 0.078 µM at Histone deacetylase 9 [6]. Further, the inhibition entry on Histone deacetylase 9 [4] and on Histone deacetylase 1 [1] was “Active” throughout.
`COc1ccc(-c2csc(NC(=O)CCCCCCS)n2)cc1C`: the inhibition result at Histone deacetylase 1 [1] is “Active”.
Still for that read-out and setting: under `COc1ccc(-c2csc(NC(=O)CCCCCCS)n2)cc1` stands “Active”; under `O=C(CCCCCCS)Nc1nc(-c2ccc(OC(F)(F)F)cc2)cs1`, “Active”; under `CCCCc1ccc(-c2csc(NC(=O)CCCCCCS)n2)cc1`, “Active”.
On the same count and under the same terms, under `O=C(CCCCCCS)Nc1nc(-c2cccc(Cl)c2)cs1` stands “Active”.
Consider `O=C(CCCCCCS)Nc1nc(-c2ccccc2)cs1`, for which the figures for the IC50 (in test [3]; against Histone deacetylase 1 [5]; against Histone deacetylase 9 [6]) were 0.23 µM, 0.096 µM and 0.082 µM, respectively.
As for `COc1cccc(-c2csc(NC(=O)CCCCCCS)n2)c1`, in test [2], the inhibition amounted to 70%. Also, at Histone deacetylase 1 [1], the inhibition entry is “Active”.
For the compound `Cc1ccc(-c2csc(NC(=O)CCCCCCS)n2)cc1F`, the half-inhibitory concentration (IC50) in test [3] amounted to 6.1 µM; at Histone deacetylase 1 [5] it was 0.05 µM; against Histone deacetylase 9 [6], 0.062 µM. In addition, the inhibition entry on Histone deacetylase 9 [4] and at Histone deacetylase 1 [1] was “Active” in each case.
For the compound `COc1c(C)cc(-c2csc(NC(=O)CCCCCCS)n2)cc1C`, at Histone deacetylase 1 [1], the inhibition entry is “Active”.
With `O=C(CCCCCCS)Nc1nc(-c2ccc(F)cc2)cs1`, the IC50 in test [3] stood at 0.55 µM; at Histone deacetylase 1 [5], 0.036 µM; on Histone deacetylase 9 [6], 0.057 µM. Moreover, the inhibition result on Histone deacetylase 9 [4] and on Histone deacetylase 1 [1] was “Active” each time.
With `Cc1cccc(-c2csc(NC(=O)CCCCCCS)n2)c1`, the inhibition entry at Histone deacetylase 1 [1] is “Active”.
With `Cc1cc(C)cc(-c2csc(NC(=O)CCCCCCS)n2)c1`, the inhibition entry at Histone deacetylase 1 [1] is “Active”.
In the case of `CC(C)(C)c1ccc(-c2csc(NC(=O)CCCCCCS)n2)cc1`, the inhibition result on Histone deacetylase 1 [1] was “Active”.
On the same count and under the same terms, under `CN(C(=O)CCCCCCS)c1nc(-c2ccccc2)cs1` stands “inactive”.
On to `Cc1ccc(-c2csc(NC(=O)CCCCCCS)n2)cc1`, for which the inhibition result at Histone deacetylase 9 [4] and on Histone deacetylase 1 [1] was “Active” in each case. Besides, the IC50 is 0.057 µM at Histone deacetylase 1 [5] and 0.042 µM at Histone deacetylase 9 [6].

Broadly, the inhibition is the share of the control response that was lost under treatment. As usually defined, the IC50 is the point on the concentration scale where inhibition reaches its midpoint.
